The results in this text go back to ChEMBL document CHEMBL5579867, “Ligand-Based Pharmacophoric Design and Anti-inflammatory Evaluation of Triazole Linked Semisynthetic Labdane Conjugates” (ACS Med Chem Lett, 2024).

The subject of data set [1] is RAW264.7. In words: Antiinflammatory activity in LPS-induced mouse RAW264.7 cells assessed as inhibition of NO production pretreated for 1 hr followed by LPS stimulation and measured after 23 hrs by Griess method. The class given is functional, cell-based. On the technique in general: Nitrite, measured by Griess reagent, commonly stands in for NO production.
Data set [2] relates to RAW264.7. In words: Inhibition of LPS-induced NF-kappaB activation in mouse RAW264.7 cells assessed as inhibition of p65 phosphorylation at 20 uM pretreated for 1 hr followed by LPS stimulation and measured after 24 hrs by Western blot analysis. The class given is cell-based. The settings on record: time 25.0 hrs. In general terms: Immunoblotting shows a protein as a band on a membrane.

Data set [3] has as its system RAW264.7. In words: Cytotoxicity against mouse RAW264.7 cells assessed as reduction in cell viability at 1 to 20 uM incubated for 24 hrs by MTT assay. It counts as toxicity, cell-based. The following applies: raw264.7, 24 h, dose 1-20 µM. (In general: Tetrazolium assays rely on reduction of a dye to a coloured formazan, in cell work by metabolically active cells.)
The test system of data set [4] is RAW264.7. In words: Antiinflammatory activity in LPS-induced mouse RAW264.7 cells assessed as inhibition of NO production at 1 to 20 uM pretreated for 1 hr followed by LPS stimulation and measured after 23 hrs by Griess method. The settings on record: dose 1-20 µM, time 24.0 hrs. It counts as functional, cell-based.
The subject of data set [5] is RAW264.7. The data set can be described thus: Antiinflammatory activity in LPS-induced mouse RAW264.7 cells assessed as inhibition of TNF-alpha production at 20 uM pretreated for 1 hr followed by LPS stimulation and measured after 24 hrs by ELISA. The class given is functional, cell-based. The following applies: time 25.0 hrs.
Data set [6] concerns RAW264.7. The data set can be described thus: Antiinflammatory activity in LPS-induced mouse RAW264.7 cells assessed as inhibition of IL-6 production at 20 uM pretreated for 1 hr followed by LPS stimulation and measured after 24 hrs by ELISA. It counts as functional, cell-based. The following applies: time 25.0 hrs.
For data set [7], the system named is RAW264.7. The data set can be described thus: Antiinflammatory activity in LPS-induced mouse RAW264.7 cells assessed as inhibition of TNF-alpha production pretreated for 1 hr followed by LPS stimulation and measured after 24 hrs by ELISA. The settings on record: dose 1-10 µM, time 25.0 hrs. It counts as functional, cell-based.
The subject of data set [8] is RAW264.7. In words: Antiinflammatory activity in LPS-induced mouse RAW264.7 cells assessed as inhibition of IL-6 production pretreated for 1 hr followed by LPS stimulation and measured after 24 hrs by ELISA. It counts as functional, cell-based. The settings on record: dose 1-10 µM, time 25.0 hrs.
The test system of data set [9] is RAW264.7. The data set can be described thus: Antiinflammatory activity in LPS-induced mouse RAW264.7 cells assessed as increase in IL-10 production pretreated for 1 hr followed by LPS stimulation and measured after 24 hrs by ELISA. The settings on record: dose 1-10 µM, time 25.0 hrs. It counts as functional, cell-based.
The subject of data set [10] is RAW264.7. In words: Antiinflammatory activity in LPS-induced mouse RAW264.7 cells assessed as reduction in COX-2 protein expression pretreated for 1 hr followed by LPS stimulation and measured after 24 hrs by Western blot analysis. The following applies: dose 10-20 µM, time 25.0 hrs. The class given is functional, cell-based.
Data set [11] concerns RAW264.7. The data set can be described thus: Antiinflammatory activity in LPS-induced mouse RAW264.7 cells assessed as reduction in iNOS protein expression pretreated for 1 hr followed by LPS stimulation and measured after 24 hrs by Western blot analysis. The following applies: dose 10-20 µM, time 25.0 hrs. The class given is functional, cell-based.
Data set [12] has as its system RAW264.7. In words: Inhibition of LPS-induced NF-kappaB activation in mouse RAW264.7 cells assessed as inhibition of p65 phosphorylation pretreated for 1 hr followed by LPS stimulation and measured after 24 hrs by Western blot analysis. The following applies: dose 10-20 µM, time 25.0 hrs. It counts as cell-based.
For data set [13], the system named is RAW264.7. In words: Effect on NF-kappaB p65 protein expression in LPS-induced mouse RAW264.7 cells at 10 to 20 uM pretreated for 1 hr followed by LPS stimulation and measured after 24 hrs by Western blot analysis. The class given is functional, cell-based. The settings on record: dose 10-20 µM, time 25.0 hrs.
The subject of data set [14] is RAW264.7. The data set can be described thus: Inhibition of LPS-induced NF-kappaB activation in mouse RAW264.7 cells assessed as reduction in nuclear translocation pretreated for 1 hr followed by LPS stimulation and measured after 24 hrs by immunofluorescence staining based fluorescence microscopic analysis. The class given is cell-based. The settings on record: dose 10-20 µM, time 25.0 hrs.

The nature of data set [15]: Inhibition of TNF-alpha induced ICAM-1 protein expression in HUVEC cells. It counts as functional, cell-based. The settings on record: Homo sapiens.
The target of data set [16] is T1, Polyunsaturated fatty acid lipoxygenase ALOX15 (Homo sapiens, UniProt P16050).
T1 sequence (P16050 whole entry): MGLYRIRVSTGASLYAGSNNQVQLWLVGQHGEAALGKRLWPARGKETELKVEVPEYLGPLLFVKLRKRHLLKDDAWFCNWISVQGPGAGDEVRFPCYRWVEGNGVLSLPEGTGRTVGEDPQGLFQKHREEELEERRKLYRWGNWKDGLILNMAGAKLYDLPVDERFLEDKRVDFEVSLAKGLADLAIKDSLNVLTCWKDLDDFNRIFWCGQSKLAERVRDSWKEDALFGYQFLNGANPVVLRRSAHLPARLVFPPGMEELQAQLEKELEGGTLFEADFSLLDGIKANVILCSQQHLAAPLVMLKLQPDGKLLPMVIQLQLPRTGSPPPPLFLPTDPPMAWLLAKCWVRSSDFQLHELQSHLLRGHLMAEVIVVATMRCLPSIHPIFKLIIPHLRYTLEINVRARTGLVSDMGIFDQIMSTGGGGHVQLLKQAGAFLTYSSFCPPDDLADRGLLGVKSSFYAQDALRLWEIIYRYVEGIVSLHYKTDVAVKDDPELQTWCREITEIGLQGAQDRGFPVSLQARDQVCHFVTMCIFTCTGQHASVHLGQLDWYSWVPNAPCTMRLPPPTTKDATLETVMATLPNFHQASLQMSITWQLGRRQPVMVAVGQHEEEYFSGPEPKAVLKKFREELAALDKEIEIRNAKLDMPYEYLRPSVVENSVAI
The data set can be described thus: Inhibition of LOX-15 (unknown origin).

Calls of active or inactive are those of the source. The calls are words filed in the database; no cut-off is given here.

On to `COc1ccc2c(c1)c(CC(=O)O)c(C)n2C(=O)c1ccc(Cl)cc1` [INDOMETHACIN], for which the IC50 in the data set with RAW264.7 [1] worked out at 7.31 µM. Besides, in the data set on RAW264.7 [2], the inhibition result is “Active”.

As for `C=C1CC[C@H]2C(C)(C)CCC[C@]2(C)[C@H]1C/C=C(/C=O)CC(=O)OCc1cn(CCN2C(=O)C(=O)c3ccccc32)nn1`, the Activity entry with RAW264.7 [3] is “Non-Toxic”; in the data set with RAW264.7 [7], “Dose-Dependent Effect”; in the data set on RAW264.7 [8], “Dose-Dependent Effect”; with RAW264.7 [9], “Dose-Dependent Effect”; with RAW264.7 [10], “Dose-Dependent Effect”; in the data set with RAW264.7 [11], “Dose-Dependent Effect”. The outcome with RAW264.7 [4], in the data set with RAW264.7 [5] and in the data set on RAW264.7 [6] was Active. The IC50 in the data set with RAW264.7 [1] worked out at 3.13 µM. In addition, the inhibition entry with RAW264.7 [12] and in the data set with RAW264.7 [14] was “Dose-Dependent Effect” in each case. In the data set with RAW264.7 [13], the outcome was inactive.

For the compound `COc1ccc(N/N=C2\C(=O)N(CCCn3cncn3)c3ccc(Br)cc32)cc1`, the IC50 in data set [15] amounted to 20 µM.

Consider `C=C1CC[C@H]2C(C)(C)CCC[C@]2(C)[C@H]1C/C=C(/C=O)CC(=O)OCc1cn(CCCN2C(=O)C(=O)c3cc(F)ccc32)nn1`, for which the Activity result in the data set with RAW264.7 [3] is listed as “Non-Toxic”. Further, the result in the data set on RAW264.7 [4], in the data set with RAW264.7 [5] and in the data set on RAW264.7 [6] was Active.

In the case of `C=C1CC[C@H]2C(C)(C)CCC[C@]2(C)[C@H]1C/C=C(/C=O)CC(=O)OCc1cn(CCN2C(=O)C(=O)c3cc(I)ccc32)nn1`, the Activity result with RAW264.7 [3] is on record as “Non-Toxic”. Also, the result in the data set with RAW264.7 [4] was inactive. For the same compound, the result in the data set on RAW264.7 [5] and in the data set on RAW264.7 [6] was Active.

Compound `CN(C)c1ccc(/C=C/C(=O)c2cccc(-n3cc(CN4C(=O)C(=O)c5ccccc54)nn3)c2)cc1` displayed an IC50 in data set [16] of 1.58 µM.

For `C=C1CC[C@H]2C(C)(C)CCC[C@]2(C)[C@H]1C/C=C(/C=O)CC(=O)OCc1cn(CCN2C(=O)C(=O)c3cc(F)ccc32)nn1`, the Activity entry with RAW264.7 [3] was “Non-Toxic”. The outcome in the data set on RAW264.7 [4] was inactive. For the same compound, the outcome with RAW264.7 [5] and in the data set with RAW264.7 [6] was Active.

In general, IC50 refers to the concentration needed to halve the response being measured.
